pEC50, pIC50: −log10 of the molar value. Calls of active or inactive are those of the source. The rule behind the calls is not given here.
Legend:
Cannabinoid receptor 1 [1] = biological target: T1, Cannabinoid receptor 1 (Homo sapiens, UniProt P21554); assay: Antagonist activity at human CB1 receptor expressed in CHO-K1 cells co-transfected with human Galpha16 assessed as intracellular calcium flux; format: functional, cell-based
Cannabinoid receptor 1 [2] = biological target: T1, Cannabinoid receptor 1; assay: Agonist activity at human CB1 receptor expressed in CHO-K1 cells co-transfected with human Galpha16 assessed as intracellular calcium flux; format: functional, cell-based
Cannabinoid receptor 2 [3] = biological target: T2, Cannabinoid receptor 2 (Homo sapiens, UniProt P34972); assay: Agonist activity at human CB2 receptor expressed in CHO-K1 cells co-transfected with human Galpha16 assessed as intracellular calcium flux at 10 uM; format: functional, cell-based
Cannabinoid receptor 2 [4] = biological target: T2, Cannabinoid receptor 2; assay: Agonist activity at human CB2 receptor expressed in CHO-K1 cells co-transfected with human Galpha16 assessed as intracellular calcium flux; format: functional, cell-based
Cannabinoid receptor 2 [5] = biological target: T2, Cannabinoid receptor 2; assay: Antagonist activity at human CB2 receptor expressed in CHO-K1 cells co-transfected with human Galpha16 assessed as intracellular calcium flux; format: functional, cell-based
Mus musculus [6] = assay: Antiinflammatory activity against DSS-induced colitis C57/BL6 mouse model assessed as disruption of epithelial layer in colon at 10 to 30 mg/kg, po administered for 9 days by H and E staining based analysis; format: functional, organism-based; conditions: dose 10-30 mg/kg, time 9.0 day
Cannabinoid receptor 2 [7] = biological target: T2, Cannabinoid receptor 2; assay: Agonist activity at human CB2 receptor expressed in HEK293 cells assessed as forskolin-stimulated cAMP accumulation preincubated with compound for 10 mins followed by forskolin induction and measured after 2 hrs by HTRF analysis; format: functional, cell-based
Mus musculus [8] = assay: Antiinflammatory activity against DSS-induced colitis C57/BL6 mouse model assessed as reduction in body weight loss at 10 to 30 mg/kg, po administered for 9 days; format: functional, organism-based; conditions: dose 10-30 mg/kg, time 9.0 day
Mus musculus [9] = assay: Antiinflammatory activity against DSS-induced colitis C57/BL6 mouse model assessed as reduction in disease activity index (DAI) score at 10 to 30 mg/kg, po administered for 9 days; format: functional, organism-based; conditions: dose 10-30 mg/kg, time 9.0 day
Cannabinoid receptor 2 [10] = biological target: T2, Cannabinoid receptor 2; assay: Antagonist activity at human CB2 receptor expressed in CHO cells co-transfected with human Galpha16 assessed as increase in intracellular calcium mobilization; format: functional, cell-based; conditions: filed as antagonist
Mus musculus [11] = assay: Antiinflammatory activity against DSS-induced colitis C57/BL6 mouse model assessed as loss of goblet cells at 10 to 30 mg/kg, po administered for 9 days by H and E staining based analysis; format: functional, organism-based; conditions: dose 10-30 mg/kg, time 9.0 day
Mus musculus [12] = assay: Antiinflammatory activity against DSS-induced colitis in po dosed C57/BL6 mouse model assessed as suppression of TNF-alpha expression administered for 9 days by ELISA analysis; format: functional, organism-based; conditions: dose 10-30 mg/kg, time 9.0 day
Mus musculus [13] = assay: Antiinflammatory activity against DSS-induced colitis C57/BL6 mouse model assessed as reduction in inflammatory infiltration at 10 to 30 mg/kg, po administered for 9 days by H and E staining based analysis; format: functional, organism-based; conditions: dose 10-30 mg/kg, time 9.0 day
Mus musculus [14] = assay: Antiinflammatory activity against DSS-induced colitis C57/BL6 mouse model assessed as delay in hematochezia development at 10 to 30 mg/kg, po administered for 9 days; format: functional, organism-based; conditions: dose 10-30 mg/kg, time 9.0 day
Mus musculus [15] = assay: Antiinflammatory activity against DSS-induced colitis in po dosed C57/BL6 mouse model assessed as suppression of IL-6 expression administered for 9 days by ELISA analysis; format: functional, organism-based; conditions: dose 10-30 mg/kg, time 9.0 day
Mus musculus [16] = assay: Antiinflammatory activity against DSS-induced colitis C57/BL6 mouse model assessed as delay in diarrhoea development at 10 to 30 mg/kg, po administered for 9 days; format: functional, organism-based; conditions: dose 10-30 mg/kg, time 9.0 day
Cannabinoid receptor 2 [17] = biological target: T2, Cannabinoid receptor 2; assay: Agonist activity at human CB2 receptor expressed in CHO cells assessed as reduction in ERK1/2 phosphorylation at 10 uM by Western blot analysis; format: functional, cell-based
Mus musculus [18] = assay: Antiinflammatory activity against DSS-induced colitis in po dosed C57/BL6 mouse model assessed as suppression of IL-1beta expression administered for 9 days by ELISA analysis; format: functional, organism-based; conditions: dose 10-30 mg/kg, time 9.0 day
Cannabinoid receptor 2 [19] = biological target: T2, Cannabinoid receptor 2; assay: Antagonist activity at human CB2 receptor expressed in CHO cells co-transfected with human Galpha16 assessed as receptor desensitization by measuring reduction in calcium response; format: functional, cell-based; conditions: filed as antagonist
Cannabinoid receptor 2 [20] = biological target: T2, Cannabinoid receptor 2; assay: Agonist activity at human CB2 receptor expressed in CHO-K1 cells co-transfected with human Galpha16 assessed as intracellular calcium flux at 10 uM relative to control; format: functional, cell-based; conditions: filed as agonist
Cannabinoid receptor 2 [21] = biological target: T2, Cannabinoid receptor 2; assay: Partial agonist activity at human CB2 receptor expressed in CHO-K1 cells co-transfected with human Galpha16 assessed as intracellular calcium flux at 10 uM; format: functional, cell-based
Cannabinoid receptor 1 [22] = biological target: T1, Cannabinoid receptor 1; assay: Agonist activity at human CB1 receptor expressed in CHO-K1 cells co-transfected with human Galpha16 assessed as intracellular calcium flux at 10 uM relative to control; format: functional, cell-based; conditions: filed as agonist

T1 sequence (P21554 whole entry): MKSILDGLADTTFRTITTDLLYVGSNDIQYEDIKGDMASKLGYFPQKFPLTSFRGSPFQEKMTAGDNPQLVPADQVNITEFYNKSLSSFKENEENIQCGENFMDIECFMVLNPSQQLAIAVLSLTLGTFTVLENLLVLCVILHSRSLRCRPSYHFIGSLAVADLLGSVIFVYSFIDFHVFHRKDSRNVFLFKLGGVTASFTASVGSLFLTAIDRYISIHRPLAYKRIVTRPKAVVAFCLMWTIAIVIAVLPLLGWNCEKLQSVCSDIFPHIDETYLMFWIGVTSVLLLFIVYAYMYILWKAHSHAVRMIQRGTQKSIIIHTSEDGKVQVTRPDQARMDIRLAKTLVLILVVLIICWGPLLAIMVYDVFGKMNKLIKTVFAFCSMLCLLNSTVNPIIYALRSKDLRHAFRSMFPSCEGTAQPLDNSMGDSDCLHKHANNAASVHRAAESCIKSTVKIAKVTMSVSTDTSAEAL
T2 sequence (P34972 whole entry): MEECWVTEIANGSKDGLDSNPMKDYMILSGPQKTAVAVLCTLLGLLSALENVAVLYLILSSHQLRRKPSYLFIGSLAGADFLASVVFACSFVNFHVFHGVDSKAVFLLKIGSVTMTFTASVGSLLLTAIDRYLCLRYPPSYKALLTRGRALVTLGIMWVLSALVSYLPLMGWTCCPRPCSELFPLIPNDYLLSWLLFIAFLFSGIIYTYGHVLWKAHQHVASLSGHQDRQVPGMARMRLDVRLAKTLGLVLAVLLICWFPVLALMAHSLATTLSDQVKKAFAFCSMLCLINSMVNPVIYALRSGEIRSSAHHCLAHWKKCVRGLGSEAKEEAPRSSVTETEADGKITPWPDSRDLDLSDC

For CCCCn1nc(C(=O)NC(C)(C)CO)cc1-c1cncs1, the pIC50 (Cannabinoid receptor 1 [1]) was less than 4.00, the pEC50 (Cannabinoid receptor 1 [2]) was less than 4.00 and the Activity (Cannabinoid receptor 2 [3]) was “inactive”. The pEC50 (Cannabinoid receptor 2 [4]) was less than 4.00 and the pIC50 (Cannabinoid receptor 2 [5]) was less than 4.00.
For CCCCn1nc(C(=O)NC(C)(C)CO)cc1-c1cccs1, the Activity (Mus musculus [6]) was “Active”, the pIC50 (Cannabinoid receptor 1 [1]) was less than 4.00 and the pEC50 (Cannabinoid receptor 2 [7]) was 7.82. For the same compound, the Activity (Mus musculus [8]) was “Active”, the Activity (Mus musculus [9]) was “Active” and the Activity (Cannabinoid receptor 2 [10]) was “Active”. For the same compound, the pEC50 (Cannabinoid receptor 1 [2]) was less than 4.00, the Activity (Mus musculus [11]) was “Active” and the Activity (Mus musculus [12]) was “Dose-dependent-effect”. The Activity (Mus musculus [13]) was “Active”, the Activity (Mus musculus [14]) was “Active” and the Activity (Mus musculus [15]) was “Dose-dependent-effect”. For the same compound, the Activity (Mus musculus [16]) was “Active”, the Activity (Cannabinoid receptor 2 [17]) was “inactive” and the Activity (Mus musculus [18]) was “Dose-dependent-effect”. The Activity (Cannabinoid receptor 2 [19]) was “Active”, the pEC50 (Cannabinoid receptor 2 [4]) was 7.79 and the Emax (Cannabinoid receptor 2 [20]) was 90%. For the same compound, the pIC50 (Cannabinoid receptor 2 [5]) was less than 4.00.
With CCCCCn1nc(C(=O)NC(C)(C)CO)cc1-c1nccs1 the pIC50 (Cannabinoid receptor 1 [1]) was less than 4.00, the pEC50 (Cannabinoid receptor 1 [2]) was less than 4.00 and the pEC50 (Cannabinoid receptor 2 [4]) was less than 4.00. It also gave a pIC50 (Cannabinoid receptor 2 [5]) of less than 4.00.
For CCCCn1nc(C(=O)NC(C)(C)CO)cc1-c1cccn1C(C)C, the pIC50 (Cannabinoid receptor 1 [1]) was less than 4.00, the pEC50 (Cannabinoid receptor 1 [2]) was less than 4.00 and the Activity (Cannabinoid receptor 2 [3]) was “inactive”. The Activity (Cannabinoid receptor 2 [21]; filed as partial agonist) was “Weak_effect”, the pEC50 (Cannabinoid receptor 2 [4]) was less than 4.00 and the pIC50 (Cannabinoid receptor 2 [5]) was less than 4.00.
CCCCCCn1nc(C(=O)NC(C)(C)CO)cc1-c1cccs1 showed a pIC50 (Cannabinoid receptor 1 [1]) of less than 4.00, a pEC50 (Cannabinoid receptor 1 [2]) of less than 4.00 and a pEC50 (Cannabinoid receptor 2 [4]) of 7.71. It also gave an Emax (Cannabinoid receptor 2 [20]) of 72% and a pIC50 (Cannabinoid receptor 2 [5]) of less than 4.00.
Compound CCCCCn1nc(C(=O)NC(C)(C)CO)cc1-c1ccc(C)s1 has a pIC50 (Cannabinoid receptor 1 [1]) of less than 4.00, a pEC50 (Cannabinoid receptor 1 [2]) of less than 4.00 and a pEC50 (Cannabinoid receptor 2 [4]) of less than 4.00. For the same compound, the pIC50 (Cannabinoid receptor 2 [5]) was 7.55.
With COCCn1nc(C(=O)NC(C)(C)CO)cc1-c1cccs1 the pIC50 (Cannabinoid receptor 1 [1]) was less than 4.00, the pEC50 (Cannabinoid receptor 1 [2]) was less than 4.00 and the Activity (Cannabinoid receptor 2 [3]; filed as agonist) was “Active”. It also gave a pEC50 (Cannabinoid receptor 2 [4]) of 6.89, an Emax (Cannabinoid receptor 2 [20]) of 46% and a pIC50 (Cannabinoid receptor 2 [5]) of less than 4.00.
Work on CCCCCn1nc(C(=O)NC(C)(C)CO)cc1-c1cccs1 yielded a pIC50 (Cannabinoid receptor 1 [1]) of less than 4.00, an Emax (Cannabinoid receptor 1 [22]) of 70% and a pEC50 (Cannabinoid receptor 1 [2]) of 6.23. For the same compound, the pEC50 (Cannabinoid receptor 2 [4]) was 8.06 and the Emax (Cannabinoid receptor 2 [20]) was 95%.
CC(C)(CO)NC(=O)c1cc(-c2cccs2)n(-c2ccc(F)cc2)n1 was tested, and the pIC50 (Cannabinoid receptor 1 [1]) was less than 4.00, the pEC50 (Cannabinoid receptor 1 [2]) was less than 4.00 and the Activity (Cannabinoid receptor 2 [21]; filed as partial agonist) was “Weak_effect”. It also gave a pEC50 (Cannabinoid receptor 2 [4]) of 6.07, an Emax (Cannabinoid receptor 2 [20]) of 48% and a pIC50 (Cannabinoid receptor 2 [5]) of less than 4.00.
With CCCCCn1nc(C(=O)NC(C)(C)CO)cc1-c1cc(C)cs1 the pIC50 (Cannabinoid receptor 1 [1]) was less than 4.00, the pEC50 (Cannabinoid receptor 1 [2]) was less than 4.00 and the pEC50 (Cannabinoid receptor 2 [4]) was less than 4.00. It also gave a pIC50 (Cannabinoid receptor 2 [5]) of 7.16.
With COc1ccc(-n2nc(C(=O)NC(C)(C)CO)cc2-c2cccs2)cc1 the pIC50 (Cannabinoid receptor 1 [1]) was less than 4.00, the pEC50 (Cannabinoid receptor 1 [2]) was less than 4.00 and the Activity (Cannabinoid receptor 2 [21]) was “inactive”. The pEC50 (Cannabinoid receptor 2 [4]) was less than 4.00 and the pIC50 (Cannabinoid receptor 2 [5]) was less than 4.00.
CCCCn1nc(C(=O)NC(C)(C)CO)cc1-c1ccn(C)c1 was tested, and the pIC50 (Cannabinoid receptor 1 [1]) was less than 4.00, the pEC50 (Cannabinoid receptor 1 [2]) was less than 4.00 and the Activity (Cannabinoid receptor 2 [3]) was “inactive”. It also gave a pEC50 (Cannabinoid receptor 2 [4]) of less than 4.00 and a pIC50 (Cannabinoid receptor 2 [5]) of less than 4.00.
CCCCCn1nc(-c2cccn2C)cc1C(=O)NC(C)(C)CO gave a pIC50 (Cannabinoid receptor 1 [1]) of less than 4.00, a pEC50 (Cannabinoid receptor 1 [2]) of less than 4.00 and a pEC50 (Cannabinoid receptor 2 [4]) of less than 4.00.
CCCCCn1nc(-c2cccn2CC)cc1C(=O)NC(C)(C)CO was tested, and the pIC50 (Cannabinoid receptor 1 [1]) was less than 4.00, the pEC50 (Cannabinoid receptor 1 [2]) was less than 4.00 and the pEC50 (Cannabinoid receptor 2 [4]) was less than 4.00.
Work on CCCCCn1nc(-c2ccco2)cc1C(=O)NC(C)(C)CO yielded a pIC50 (Cannabinoid receptor 1 [1]) of less than 4.00, a pEC50 (Cannabinoid receptor 1 [2]) of less than 4.00 and a pEC50 (Cannabinoid receptor 2 [4]) of less than 4.00.
With CCCCCn1nc(C(=O)NC(C)(C)CO)cc1-c1sccc1Cl the pIC50 (Cannabinoid receptor 1 [1]) was less than 4.00, the pEC50 (Cannabinoid receptor 1 [2]) was less than 4.00 and the pEC50 (Cannabinoid receptor 2 [4]) was 7.67. The Emax (Cannabinoid receptor 2 [20]) was 76% and the pIC50 (Cannabinoid receptor 2 [5]) was less than 4.00.

Source: ChEMBL document CHEMBL6078695, “Design, synthesis, and biological evaluations of 5-aryl-pyrazole-3-carboxamide derivatives as selective CB2 receptor agonists for the treatment of colitis” (Eur J Med Chem, 2025)
